Source: US6531288B1, “Methods to identify compounds that affect the expression level of the syntaxin-1 A encoding gene” (University of British Columbia, priority 1999, dated 2003)
Starred links: 1 amine or outer side, 2 acyl side, 3 side chain; linkers in the order of their positions; H or OH if unused. Positions of bridges follow the written chain, without caps; N, C: chain ends. Non-standard residues stand in square brackets, D forms with d. Residues, ends and D or L forms follow the SMILES beside them. Chains are numbered I, II in the order given. Actinocin(9to1) = Cc1c2oc3c(C)ccc(C(=O)[*:1])c3nc-2c(C(=O)[*:2])c(N)c1=O; NMeV = CN[C@H](C(=O)O)C(C)C; Sar = CNCC(=O)O

What was measured:
syntaxin-1A [1] = assay: Syntaxin-1A expression (mRNA/protein) in HEK293 cells transfected with the α1A P/Q type calcium channel; type: cell-based, human; conditions: for calcium dependent induction of syntaxin-1A: α1A transfected cells
syntaxin-1A [2] = assay: Syntaxin-1A expression in untransfected HEK293 cells treated with agents that alter intracellular calcium; type: cell-based; conditions: for syntaxin-1A mRNA levels: untransfected cells / absence of α1A transfection
syntaxin-1A [3] = assay: Syntaxin-1A expression in cerebellar granule cells (endogenous P/Q type channels); type: cell-based
Experimental: The foregoing results in HEK293 transfected cells were correlated with the endogenous P/Q type channels in neurons. Syntaxin-1A is basally expressed in cerebellar granule cells, but this is inhibited by ω Agatoxin IVA, which is known to inhibit calcium P/Q type channels specifically. […] Treatment of these cerebellar granule cells, which had been incubated in ω Agatoxin IVA with thapsigargin recovered the syntaxin-1A expression.
Syntaxin-1A expression was inhibited by the same agents as had inhibited it in HEK293 cells including inhibitors of ryanodine —or IP3—induced calcium release from stores, of CaM kinase II/IV, and of PKA, or MAPKK.

Cc1c2oc3c(C)ccc(C(=O)N[C@@H]4C(=O)N[C@H](C(C)C)C(=O)N5CCC[C@H]5C(=O)N(C)CC(=O)N(C)[C@@H](C(C)C)C(=O)O[C@@H]4C)c3nc-2c(C(=O)N[C@@H]2C(=O)N[C@H](C(C)C)C(=O)N3CCC[C@H]3C(=O)N(C)CC(=O)N(C)[C@@H](C(C)C)C(=O)O[C@@H]2C)c(N)c1=O [actinomycin D] (I: T[dV]P[Sar][NMeV] / II: T[dV]P[Sar][NMeV]; ester I:1-I:C, II:1-II:C; linker I:N-II:N via Actinocin(9to1))
mRNA corresponding to syntaxin-1A (syntaxin-1A [1]; HEK293 cells transfected with the α1A P/Q type calcium channel): inhibited

C/C=C(/C)C(=O)O[C@H]1C(C)=C2[C@H]([C@@H]1OC(=O)CCCCCCC)[C@@](C)(OC(C)=O)C[C@H](OC(=O)CCC)[C@@]1(O)[C@H]2OC(=O)[C@@]1(C)O [thapsigargin]
syntaxin-1A expression (syntaxin-1A [2]; untransfected cells): stimulated | syntaxin-1A expression after P/Q block (syntaxin-1A [3]; cerebellar granule cells which had been incubated in ω Agatoxin IVA): recovered

C[C@H](CCC(=O)O)C[C@H](C)C[C@H](C)C(=O)/C=C(\O)[C@H](C)C[C@H](C)C/C=C/[C@@H](C)[C@@H](O)[C@@H](C)[C@@H](O)C[C@@H]1CC[C@@](C)([C@H]2CC[C@@](C)([C@@H](C)O)O2)O1 [ionomycin]
levels giving maximal activation of syntaxin-1A production (syntaxin-1A [2]): 50 to 200 nM

ω Agatoxin IVA
syntaxin-1A expression (basal, calcium dependent) (syntaxin-1A [3]; cerebellar granule cells): inhibited

Cn1c(=O)c2c(ncn2C)n(C)c1=O [caffeine]
calcium release from ryanodine- and IP3-sensitive stores (syntaxin-1A [2]; untransfected cells): activated | syntaxin-1A mRNA levels (syntaxin-1A [2]): stimulated

C[N+](C)(C)CCOC(N)=O [carbachol]
calcium release from ryanodine- and IP3-sensitive stores (syntaxin-1A [2]; untransfected cells): activated | syntaxin-1A mRNA levels (syntaxin-1A [2]): stimulated

CC(=O)OCOC(=O)CN(CC(=O)OCOC(C)=O)c1ccccc1OCCOc1ccccc1N(CC(=O)OCOC(C)=O)CC(=O)OCOC(C)=O [BAPTA-AM]
calcium dependent induction of syntaxin-1A (syntaxin-1A [1]): blocked

CC(=O)OCOC(=O)CN(CCOCCOCCN(CC(=O)OCOC(C)=O)CC(=O)OCOC(C)=O)CC(=O)OCOC(C)=O [EGTA-AM]
calcium dependent induction of syntaxin-1A (syntaxin-1A [1]): blocked
